The nature of series [1]: Translucency of a direct filling composite resin. The series is classed as physicochemical. The source says: When zinc oxide is incorporated into a chemical for use in the oral cavity, it is typically incorporated for its function as an opacifying agent and can be added to a product for this function alone. However, there is a limit to the amount that can be added. Resins are esthetic restorative materials and require high translucency to be esthetic. For this reason, the amount of zinc oxide that may be added is limited to less than 0.8 wt. fract. See Table 5 for the upper limits of zinc oxide that can be incorporated into a direct fill composite resin while maintaining high translucency.
In Table 5, as the wt. fraction of Zinc Oxide is increased, the opacity also increases to a level that is not considered suitable for use as a dental composite resin for esthetic purposes. For esthetic purposes, the dental composite resin must be sufficiently translucent to mimic the appearance of natural dentin. Beyond this level, the opacity becomes too high and the restoration appears as chalky white.

A further series has as its system bacteria. As to the kind of experiment: Antimicrobial activity, modified AATCC TM 100-2012 (general statement). The series is classed as cell-based. Particulars: modified AATCC TM 100-2012 test. The text has this: (§1) Zinc oxide has been tested for antimicrobial activity in this invention according to a test that is based upon the International Standard AATCC TM 100-2012. The AATCC TM 100-2012 standard tests for microbial activity on textiles, so the test was modified for use on solid and composite materials.

The subject of a further series is e. coli. The series is described as follows: Antimicrobial activity, modified AATCC TM 100-2012 for solid and composite materials. In kind it is cell-based. The note with it: 1.0% Wt. Fract. ZnO in a direct filling composite resin. How it is done:
as §1
(§2) As discussed above, microbial activity is measured using a modified AATCC TM 100-2012 standard for use on solid and composite materials.

Another series relates to strep mutans. The description is as above. The note with it: 1.0% Wt. Fract. ZnO in a direct filling composite resin. In kind it is cell-based. How it is done:
as §1, §2

Experimental findings from US20200009020A1, “Caries-Resistant Composite Resin” (Den-Mat Holdings, LLC, priority 2016, published 2020) are described below.

With `[O]=[Zn]` [Zinc Oxide, zinc oxide], the Translucency entry in series [1] (Wt. Fract. ZnO 0.8 in a direct filling composite resin) was “pass”; in series [1] (Wt. Fract. ZnO 1.0 in a direct filling composite resin) it was “fail”. In addition, the antimicrobial activity result in the series on bacteria is reported as “effective in killing bacteria”. Further, the “% Reduction of e coli” value in the series on e. coli is given as 100%. Moreover, the “% reduction of strep mutans” value in the series with strep mutans amounted to 100%.
